Reference: article PMC9569420 (Communications Biology, 2022)
pIC50: −log10 of the molar value.

Assays:
RSK1 = target: T1, RSK1 (Homo sapiens, UniProt Q15418); experiment: HotSpot kinase assay; type: biochemical; settings: read-out: % Enzyme Activity (relative to DMSO controls)
T1 construct: purchased Reaction Biology Corporation

PLK1 = target: T2, PLK1 (Homo sapiens, UniProt P53350); experiment: HotSpot kinase assay; type: biochemical; settings: read-out: % Enzyme Activity (relative to DMSO controls)
T2 construct: purchased Reaction Biology Corporation

DCAMKL1 = target: T3, DCAMKL1 (Homo sapiens, UniProt O15075); experiment: HotSpot kinase assay; type: biochemical; settings: read-out: % Enzyme Activity (relative to DMSO controls)
T3 construct: purchased Reaction Biology Corporation

P38a/MAPK14 = target: T4, P38a/MAPK14 (Homo sapiens, UniProt Q16539); experiment: HotSpot kinase assay; type: biochemical; settings: read-out: % Enzyme Activity (relative to DMSO controls)
T4 construct: purchased Reaction Biology Corporation

FGFR3 = target: T5, FGFR3 (Homo sapiens, UniProt P22607); experiment: HotSpot kinase assay; type: biochemical; settings: read-out: % Enzyme Activity (relative to DMSO controls)
T5 construct: purchased Reaction Biology Corporation

LIMK1 = target: T6, LIMK1 (Homo sapiens, UniProt P53667); experiment: HotSpot kinase assay; type: biochemical; settings: read-out: % Enzyme Activity (relative to DMSO controls)
T6 construct: purchased Reaction Biology Corporation

DDR1 = target: T7, DDR1 (Homo sapiens, UniProt Q08345); experiment: HotSpot kinase assay; type: biochemical; settings: read-out: % Enzyme Activity (relative to DMSO controls)
T7 construct: purchased Reaction Biology Corporation

TAOK3/JIK = target: T8, TAOK3/JIK (Homo sapiens, UniProt Q9H2K8); experiment: HotSpot kinase assay; type: biochemical; settings: read-out: % Enzyme Activity (relative to DMSO controls)
T8 construct: purchased Reaction Biology Corporation

MLK4 = target: T9, MLK4 (Homo sapiens, UniProt Q5TCX8); experiment: HotSpot kinase assay; type: biochemical; settings: read-out: % Enzyme Activity (relative to DMSO controls)
T9 construct: purchased Reaction Biology Corporation

IGF1R = target: T10, IGF1R (Homo sapiens, UniProt P08069); experiment: HotSpot kinase assay; type: biochemical; settings: read-out: % Enzyme Activity (relative to DMSO controls)
T10 construct: purchased Reaction Biology Corporation

FRK/PTK5 = target: T11, FRK/PTK5 (Homo sapiens, UniProt P42685); experiment: HotSpot kinase assay; type: biochemical; settings: read-out: % Enzyme Activity (relative to DMSO controls)
T11 construct: purchased Reaction Biology Corporation

in vitro = settings: human, Huh-7.5 cells infected with SARS-CoV-2
MEK1 = target: T12, MEK1 (Homo sapiens, UniProt Q02750); experiment: HotSpot kinase assay; type: biochemical; settings: read-out: % Enzyme Activity (relative to DMSO controls)
T12 construct: purchased Reaction Biology Corporation

JAK3 = target: T13, JAK3 (Homo sapiens, UniProt P52333); experiment: HotSpot kinase assay; type: biochemical; settings: read-out: % Enzyme Activity (relative to DMSO controls)
T13 construct: purchased Reaction Biology Corporation

DAPK1 = target: T14, DAPK1 (Homo sapiens, UniProt P53355); experiment: HotSpot kinase assay; type: biochemical; settings: read-out: % Enzyme Activity (relative to DMSO controls)
T14 construct: purchased Reaction Biology Corporation

IKKa/CHUK = target: T15, IKKa/CHUK (Homo sapiens, UniProt O15111); experiment: HotSpot kinase assay; type: biochemical; settings: read-out: % Enzyme Activity (relative to DMSO controls)
T15 construct: purchased Reaction Biology Corporation

c-MER = target: T16, c-MER (Homo sapiens, UniProt Q12866); experiment: HotSpot kinase assay; type: biochemical; settings: read-out: % Enzyme Activity (relative to DMSO controls)
T16 construct: purchased Reaction Biology Corporation

mTOR/FRAP1 = target: T17, mTOR/FRAP1 (Homo sapiens, UniProt P42345); experiment: HotSpot kinase assay; type: biochemical; settings: read-out: % Enzyme Activity (relative to DMSO controls)
T17 construct: purchased Reaction Biology Corporation

CAMK2b = target: T18, CAMK2b (Homo sapiens, UniProt Q13554); experiment: HotSpot kinase assay; type: biochemical; settings: read-out: % Enzyme Activity (relative to DMSO controls)
T18 construct: purchased Reaction Biology Corporation

PKD2/PRKD2 = target: T19, PKD2/PRKD2 (Homo sapiens, UniProt Q9BZL6); experiment: HotSpot kinase assay; type: biochemical; settings: read-out: % Enzyme Activity (relative to DMSO controls)
T19 construct: purchased Reaction Biology Corporation

TSSK3/STK22C = target: T20, TSSK3/STK22C (Homo sapiens, UniProt Q96PN8); experiment: HotSpot kinase assay; type: biochemical; settings: read-out: % Enzyme Activity (relative to DMSO controls)
T20 construct: purchased Reaction Biology Corporation
T20 sequence (Q96PN8 whole entry): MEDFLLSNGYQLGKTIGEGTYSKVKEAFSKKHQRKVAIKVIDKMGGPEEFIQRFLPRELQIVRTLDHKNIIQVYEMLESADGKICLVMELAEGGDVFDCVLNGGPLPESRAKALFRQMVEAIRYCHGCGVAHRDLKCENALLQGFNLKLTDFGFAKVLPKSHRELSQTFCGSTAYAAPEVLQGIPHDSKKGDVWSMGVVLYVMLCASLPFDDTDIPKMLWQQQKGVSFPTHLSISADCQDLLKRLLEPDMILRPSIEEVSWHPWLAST

DCAMKL2 = target: T21, DCAMKL2 (Homo sapiens, UniProt Q8N568); experiment: HotSpot kinase assay; type: biochemical; settings: read-out: % Enzyme Activity (relative to DMSO controls)
T21 construct: purchased Reaction Biology Corporation

ERN2/IRE2 = target: T22, ERN2/IRE2 (Homo sapiens, UniProt Q76MJ5); experiment: HotSpot kinase assay; type: biochemical; settings: read-out: % Enzyme Activity (relative to DMSO controls)
T22 construct: purchased Reaction Biology Corporation

TIE2/TEK = target: T23, TIE2/TEK (Homo sapiens, UniProt Q02763); experiment: HotSpot kinase assay; type: biochemical; settings: read-out: % Enzyme Activity (relative to DMSO controls)
T23 construct: purchased Reaction Biology Corporation

SIK1 = target: T24, SIK1 (Homo sapiens, UniProt P57059); experiment: HotSpot kinase assay; type: biochemical; settings: read-out: % Enzyme Activity (relative to DMSO controls)
T24 construct: purchased Reaction Biology Corporation

FLT3 = target: T25, FLT3 (Homo sapiens, UniProt P36888); experiment: HotSpot kinase assay; type: biochemical; settings: read-out: % Enzyme Activity (relative to DMSO controls)
T25 construct: purchased Reaction Biology Corporation

LKB1 = target: T26, LKB1 (Homo sapiens, UniProt Q15831); experiment: HotSpot kinase assay; type: biochemical; settings: read-out: % Enzyme Activity (relative to DMSO controls)
T26 construct: purchased Reaction Biology Corporation
T26 sequence (Q15831 whole entry): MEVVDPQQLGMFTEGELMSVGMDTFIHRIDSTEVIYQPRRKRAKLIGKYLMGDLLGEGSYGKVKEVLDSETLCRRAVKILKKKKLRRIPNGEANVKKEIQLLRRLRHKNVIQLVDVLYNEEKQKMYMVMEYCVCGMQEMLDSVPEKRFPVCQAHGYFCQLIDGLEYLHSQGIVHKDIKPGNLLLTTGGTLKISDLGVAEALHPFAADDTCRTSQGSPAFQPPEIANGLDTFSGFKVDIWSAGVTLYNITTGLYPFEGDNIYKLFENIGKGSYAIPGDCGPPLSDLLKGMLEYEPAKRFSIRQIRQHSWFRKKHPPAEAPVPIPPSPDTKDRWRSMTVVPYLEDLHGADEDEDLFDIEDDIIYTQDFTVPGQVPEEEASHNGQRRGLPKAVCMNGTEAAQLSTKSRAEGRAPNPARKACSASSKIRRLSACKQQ
T26 sequence (Q7RTN6 whole entry partner): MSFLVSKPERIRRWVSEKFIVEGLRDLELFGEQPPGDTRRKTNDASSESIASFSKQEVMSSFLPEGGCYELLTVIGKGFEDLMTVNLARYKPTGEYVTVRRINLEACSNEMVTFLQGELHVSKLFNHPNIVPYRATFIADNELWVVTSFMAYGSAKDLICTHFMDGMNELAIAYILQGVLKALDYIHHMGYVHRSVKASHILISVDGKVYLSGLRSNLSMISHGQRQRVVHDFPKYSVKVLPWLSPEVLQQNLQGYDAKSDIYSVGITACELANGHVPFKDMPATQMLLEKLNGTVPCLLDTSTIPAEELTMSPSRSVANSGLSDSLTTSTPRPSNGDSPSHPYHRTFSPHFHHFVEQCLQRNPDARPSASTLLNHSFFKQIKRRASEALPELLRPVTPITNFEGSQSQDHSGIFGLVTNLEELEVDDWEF
T26 sequence (Q9Y376 whole entry partner): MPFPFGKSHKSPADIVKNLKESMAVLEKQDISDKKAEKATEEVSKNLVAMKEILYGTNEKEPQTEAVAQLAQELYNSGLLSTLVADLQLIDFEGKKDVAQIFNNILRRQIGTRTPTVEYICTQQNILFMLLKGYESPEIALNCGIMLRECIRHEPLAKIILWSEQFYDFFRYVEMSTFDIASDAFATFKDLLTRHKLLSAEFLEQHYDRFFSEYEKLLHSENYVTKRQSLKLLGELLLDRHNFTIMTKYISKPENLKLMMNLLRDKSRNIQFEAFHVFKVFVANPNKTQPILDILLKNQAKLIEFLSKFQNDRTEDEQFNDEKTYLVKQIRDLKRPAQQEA

PIM3 = target: T27, PIM3 (Homo sapiens, UniProt Q86V86); experiment: HotSpot kinase assay; type: biochemical; settings: read-out: % Enzyme Activity (relative to DMSO controls)
T27 construct: purchased Reaction Biology Corporation

STK39/STLK3 = target: T28, STK39/STLK3 (Homo sapiens, UniProt Q9UEW8); experiment: HotSpot kinase assay; type: biochemical; settings: read-out: % Enzyme Activity (relative to DMSO controls)
T28 construct: purchased Reaction Biology Corporation

TYRO3/SKY = target: T29, TYRO3/SKY (Homo sapiens, UniProt Q06418); experiment: HotSpot kinase assay; type: biochemical; settings: read-out: % Enzyme Activity (relative to DMSO controls)
T29 construct: purchased Reaction Biology Corporation

NEK1 = target: T30, NEK1 (Homo sapiens, UniProt Q96PY6); experiment: HotSpot kinase assay; type: biochemical; settings: read-out: % Enzyme Activity (relative to DMSO controls)
T30 construct: purchased Reaction Biology Corporation
T30 sequence (Q96PY6 whole entry): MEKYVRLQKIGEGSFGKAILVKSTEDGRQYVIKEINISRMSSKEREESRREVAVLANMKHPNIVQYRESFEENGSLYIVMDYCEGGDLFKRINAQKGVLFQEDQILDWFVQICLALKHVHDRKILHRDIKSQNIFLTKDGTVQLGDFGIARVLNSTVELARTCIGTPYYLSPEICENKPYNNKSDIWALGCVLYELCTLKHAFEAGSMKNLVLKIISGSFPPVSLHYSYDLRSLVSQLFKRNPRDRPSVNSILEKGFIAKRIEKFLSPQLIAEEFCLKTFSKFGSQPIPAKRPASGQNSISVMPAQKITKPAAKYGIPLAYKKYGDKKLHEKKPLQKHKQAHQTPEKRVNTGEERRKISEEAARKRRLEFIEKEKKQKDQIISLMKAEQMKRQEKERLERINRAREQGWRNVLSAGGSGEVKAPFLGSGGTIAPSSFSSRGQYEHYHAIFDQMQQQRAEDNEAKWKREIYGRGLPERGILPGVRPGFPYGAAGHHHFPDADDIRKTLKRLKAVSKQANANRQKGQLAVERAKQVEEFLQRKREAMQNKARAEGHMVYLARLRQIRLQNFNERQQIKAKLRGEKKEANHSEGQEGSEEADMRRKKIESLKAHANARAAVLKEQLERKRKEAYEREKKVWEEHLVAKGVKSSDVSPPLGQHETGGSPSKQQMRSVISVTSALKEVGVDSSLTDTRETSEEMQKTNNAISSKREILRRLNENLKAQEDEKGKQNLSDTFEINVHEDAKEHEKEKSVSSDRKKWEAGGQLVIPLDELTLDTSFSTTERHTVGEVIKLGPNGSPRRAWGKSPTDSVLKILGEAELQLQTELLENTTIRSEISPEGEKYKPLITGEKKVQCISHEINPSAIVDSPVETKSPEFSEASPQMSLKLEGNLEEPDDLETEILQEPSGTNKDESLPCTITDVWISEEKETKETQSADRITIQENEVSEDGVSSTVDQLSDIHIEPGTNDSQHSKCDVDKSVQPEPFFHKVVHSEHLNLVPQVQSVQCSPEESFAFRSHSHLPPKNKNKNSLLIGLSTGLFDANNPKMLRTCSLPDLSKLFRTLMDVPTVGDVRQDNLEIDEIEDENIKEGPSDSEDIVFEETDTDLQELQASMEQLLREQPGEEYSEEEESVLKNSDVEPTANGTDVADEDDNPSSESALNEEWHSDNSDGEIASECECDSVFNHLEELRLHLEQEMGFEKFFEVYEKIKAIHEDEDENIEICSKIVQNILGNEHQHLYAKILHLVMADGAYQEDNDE

PLK4/SAK = target: T31, PLK4/SAK (Homo sapiens, UniProt O00444); experiment: HotSpot kinase assay; type: biochemical; settings: read-out: % Enzyme Activity (relative to DMSO controls)
T31 construct: purchased Reaction Biology Corporation

OSR1/OXSR1 = target: T32, OSR1/OXSR1 (Homo sapiens, UniProt O95747); experiment: HotSpot kinase assay; type: biochemical; settings: read-out: % Enzyme Activity (relative to DMSO controls)
T32 construct: purchased Reaction Biology Corporation

VSV-S = type: cell-based, VSV pseudotyped with SARS-CoV-2 spike
IRAK4 = target: T33, IRAK4 (Homo sapiens, UniProt Q9NWZ3); experiment: HotSpot kinase assay; type: biochemical; settings: read-out: % Enzyme Activity (relative to DMSO controls)
T33 construct: purchased Reaction Biology Corporation
T33 sequence (Q9NWZ3 whole entry): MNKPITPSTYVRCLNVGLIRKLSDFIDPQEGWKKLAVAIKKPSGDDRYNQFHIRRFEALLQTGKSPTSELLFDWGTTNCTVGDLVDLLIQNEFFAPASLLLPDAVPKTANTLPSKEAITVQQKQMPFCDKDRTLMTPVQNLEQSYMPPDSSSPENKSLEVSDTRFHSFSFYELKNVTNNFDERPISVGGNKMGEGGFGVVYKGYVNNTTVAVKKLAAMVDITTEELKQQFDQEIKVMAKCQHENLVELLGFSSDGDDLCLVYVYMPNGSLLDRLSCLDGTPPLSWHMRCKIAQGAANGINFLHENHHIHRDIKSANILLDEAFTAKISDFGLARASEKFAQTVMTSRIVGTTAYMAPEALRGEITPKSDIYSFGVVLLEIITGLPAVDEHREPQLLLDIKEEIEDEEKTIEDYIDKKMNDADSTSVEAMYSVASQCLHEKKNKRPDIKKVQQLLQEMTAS

AKT3 = target: T34, AKT3 (Homo sapiens, UniProt Q9Y243); experiment: biochemical
T34 construct: purchased Reaction Biology Corporation
T34 sequence (Q9Y243 whole entry): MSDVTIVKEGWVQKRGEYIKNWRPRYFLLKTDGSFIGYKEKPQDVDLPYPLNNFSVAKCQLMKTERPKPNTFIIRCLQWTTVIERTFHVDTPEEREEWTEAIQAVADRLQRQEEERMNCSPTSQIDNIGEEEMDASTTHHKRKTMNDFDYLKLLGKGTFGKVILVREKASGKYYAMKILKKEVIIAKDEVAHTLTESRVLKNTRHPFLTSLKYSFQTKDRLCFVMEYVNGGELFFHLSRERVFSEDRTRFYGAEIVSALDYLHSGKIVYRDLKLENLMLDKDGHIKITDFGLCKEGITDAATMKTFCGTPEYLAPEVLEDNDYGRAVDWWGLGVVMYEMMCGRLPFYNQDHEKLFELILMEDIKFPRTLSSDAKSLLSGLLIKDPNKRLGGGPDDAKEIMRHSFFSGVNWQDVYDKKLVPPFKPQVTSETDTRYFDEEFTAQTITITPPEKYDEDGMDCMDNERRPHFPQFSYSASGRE

RSK2 = target: T35, RSK2 (Homo sapiens, UniProt P51812); experiment: HotSpot kinase assay; type: biochemical; settings: read-out: % Enzyme Activity (relative to DMSO controls)
T35 construct: purchased Reaction Biology Corporation

CK1d = target: T36, CK1d (Homo sapiens, UniProt P48730); experiment: HotSpot kinase assay; type: biochemical; settings: read-out: % Enzyme Activity (relative to DMSO controls)
T36 construct: purchased Reaction Biology Corporation

KSR2 = target: T37, KSR2 (Homo sapiens, UniProt Q6VAB6); experiment: biochemical; settings: read-out: % Enzyme Activity (relative to DMSO controls)
T37 construct: purchased Reaction Biology Corporation
T37 sequence (Q6VAB6 whole entry): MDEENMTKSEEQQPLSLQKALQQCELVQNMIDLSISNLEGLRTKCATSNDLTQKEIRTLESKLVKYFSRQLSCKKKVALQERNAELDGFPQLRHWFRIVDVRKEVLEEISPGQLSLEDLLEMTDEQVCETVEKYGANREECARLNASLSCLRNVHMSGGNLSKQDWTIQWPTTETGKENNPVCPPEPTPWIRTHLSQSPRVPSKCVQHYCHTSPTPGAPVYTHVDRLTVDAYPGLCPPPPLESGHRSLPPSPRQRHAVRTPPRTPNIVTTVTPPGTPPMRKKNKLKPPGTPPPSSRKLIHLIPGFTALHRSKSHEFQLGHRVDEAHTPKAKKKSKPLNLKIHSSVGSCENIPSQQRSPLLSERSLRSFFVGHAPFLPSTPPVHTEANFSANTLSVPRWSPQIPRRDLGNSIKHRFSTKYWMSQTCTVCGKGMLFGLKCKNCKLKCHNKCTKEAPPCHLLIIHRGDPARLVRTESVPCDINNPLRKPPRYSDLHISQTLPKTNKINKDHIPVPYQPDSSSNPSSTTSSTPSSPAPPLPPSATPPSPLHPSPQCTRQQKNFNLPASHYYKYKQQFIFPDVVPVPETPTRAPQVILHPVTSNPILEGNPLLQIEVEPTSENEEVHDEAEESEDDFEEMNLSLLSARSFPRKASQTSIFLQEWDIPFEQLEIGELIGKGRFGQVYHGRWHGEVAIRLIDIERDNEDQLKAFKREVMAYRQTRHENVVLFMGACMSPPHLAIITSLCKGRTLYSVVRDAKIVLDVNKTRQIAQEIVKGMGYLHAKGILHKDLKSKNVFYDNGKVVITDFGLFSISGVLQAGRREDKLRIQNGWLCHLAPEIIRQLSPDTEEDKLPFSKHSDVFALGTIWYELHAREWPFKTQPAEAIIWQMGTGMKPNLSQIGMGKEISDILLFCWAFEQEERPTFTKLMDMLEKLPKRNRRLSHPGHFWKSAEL

p70S6Kb/RPS6KB2 = target: T38, p70S6Kb/RPS6KB2 (Homo sapiens, UniProt Q9UBS0); experiment: HotSpot kinase assay; type: biochemical; settings: read-out: % Enzyme Activity (relative to DMSO controls)
T38 construct: purchased Reaction Biology Corporation

P38g = target: T39, P38g (Homo sapiens, UniProt P53778); experiment: HotSpot kinase assay; type: biochemical; settings: read-out: % Enzyme Activity (relative to DMSO controls)
T39 construct: purchased Reaction Biology Corporation

CO[C@@H]1[C@H](N(C)C(=O)CCC(=O)NCc2cn(CCCS(=O)(=O)O)nn2)C[C@H]2O[C@]1(C)n1c3ccccc3c3c4c(c5c6ccccc6n2c5c31)C(=O)NC4 [CIMSS]
remaining activity at 10 µM (RSK1): 3.27% | remaining activity at 10 µM (PLK1): 17.1% | remaining activity at 10 µM (DCAMKL1): 83.7% | remaining activity at 10 µM (P38a/MAPK14): 102% | remaining activity at 10 µM (FGFR3): 4.66% | remaining activity at 10 µM (LIMK1): 0.88% | remaining activity at 10 µM (DDR1): 0.98% | remaining activity at 10 µM (TAOK3/JIK): 12.8% | remaining activity at 10 µM (MLK4): 0.87% | remaining activity at 10 µM (IGF1R): 6.72% | remaining activity at 10 µM (FRK/PTK5): 4.49% | viability at 24 h, 0.78125 µM (in vitro): 84.7% | viability at 24 h, 1.5625 µM (in vitro): 85.5% | viability at 24 h, 3.125 µM (in vitro): 87.6% | viability at 24 h, 25 µM (in vitro): 87.9% | viability at 24 h, 50 µM (in vitro): 97.2% | viability at 72 h, 0.78125 µM (in vitro): 94.8% | viability at 72 h, 25 µM (in vitro): 80.4% | viability at 72 h, 50 µM (in vitro): 70.1% | remaining activity at 10 µM (MEK1): 76.7% | remaining activity at 10 µM (JAK3): 0.97% | remaining activity at 10 µM (DAPK1): 13.6% | remaining activity at 10 µM (IKKa/CHUK): 31.6% | remaining activity at 10 µM (c-MER): 2.17% | remaining activity at 10 µM (mTOR/FRAP1): 112% | remaining activity at 10 µM (CAMK2b): 3.03% | remaining activity at 10 µM (PKD2/PRKD2): 11.9% | remaining activity at 10 µM (TSSK3/STK22C): 62.2% | remaining activity at 10 µM (DCAMKL2): 87.7% | remaining activity at 10 µM (ERN2/IRE2): 6.47% | remaining activity at 10 µM (TIE2/TEK): 7.56% | remaining activity at 10 µM (SIK1): 1% | remaining activity at 10 µM (FLT3): 4.55% | remaining activity at 10 µM (LKB1): 38% | remaining activity at 10 µM (PIM3): 2.51% | remaining activity at 10 µM (STK39/STLK3): 19.6% | remaining activity at 10 µM (TYRO3/SKY): 23.6% | remaining activity at 10 µM (NEK1): 5.88% | remaining activity at 10 µM (PLK4/SAK): 6.73% | remaining activity at 10 µM (OSR1/OXSR1): 54.2% | VSV-S infection (VSV-S): inhibited | remaining activity at 10 µM (IRAK4): 6.48% | pIC50 (AKT3; Supplementary Table 1, read-out: IC50 (Molar concentration)): 6.80 | remaining activity at 10 µM (AKT3; read-out: % Enzyme Activity (relative to DMSO controls), 10µM): 11.4% | inhibition at 10 µM (AKT3; read-out: inhibition of Akt3): > 75% | remaining activity at 10 µM (RSK2): 1.69% | remaining activity at 10 µM (CK1d): 106% | remaining activity at 10 µM (KSR2): 108% | remaining activity at 10 µM (p70S6Kb/RPS6KB2): 3.38% | remaining activity at 10 µM (P38g): 30.3%
